Here are results for five compounds from patent US11707453B2, “Treatment of unipolar depressive disorder” (OXFORD UNIVERSITY INNOVATION LIMITED, priority 2017, dated 2023).

Series [1] deals with 5-HT2A receptor. The series is described as follows: DOI-evoked head-twitch (HTR) and ear scratch (ESR) behavioural responses. The class given is in vivo, mice. The conditions noted are these: for DOI-evoked ESR / DOI-evoked HTR: vs DOI alone.
The test system of series [2] is 5-HT2A receptor. The series is described as follows: DOI-evoked IEG (c-fos, Arc, egr2 mRNA) expression, in situ hybridization. The class given is in vivo, mice. Here is the method: In separate molecular studies, central 5-HT2A receptor function was assessed by measuring DOI-induced mRNA expression of the IEG c-fos, as well as complementary IEGs Arc and egr2 in cortical regions (Gonzalez-Maeso et al., 2007; Jennings et al., 2008). The challenge dose of DOI (2 mg kg^−1 i.p.) was selected on the basis of preliminary dose response studies and evidence that DOI-evoked IEG expression was blocked by a selective 5-HT2A receptor antagonist (Jennings et al., 2008).
Mice were randomly allocated to one of the following treatments (6 mice per group); i) acute ebselen (10 mg kg^−1 i.p.) or vehicle, ii) repeated lithium (3 days; 10 mmol kg^−1 i.p. on day 1, 3 mmol kg^−1 i.p. twice daily on days 2-3) or vehicle. Drug doses and pre-treatment times were selected as noted above; ebselen (1 h), lithium (18 h). Groups of mice were acclimatised to a procedure room for 4 h prior to each experiment. […]
c-Fos, Arc and egr2 mRNA was measured on tissue sections using in situ hybridization (Jennings et al., 2008). […]
Optical density measurements were obtained from the autoradiograms using computer-based image analysis (MCID software). Optical density readings were converted in nCi g^−1 of tissue by calibration with the use of [^14C] microscales, which were co-exposed with the slides. […]

For series [3] the following is noted: rats; cited from earlier work.
The subject of series [4] is 5-HT2A receptor binding sites. The series is described as follows: Receptor autoradiography, [3H]-ketanserin binding sites in frontal cortex after treatment. The class given is in vivo, mouse. Here is the method: The effect of ebselen and lithium treatment on the abundance of cortical 5-HT2A receptor binding sites was measured using receptor autoradiography. Mice were randomly allocated to one of the following treatments (6 mice per group); i) acute ebselen (10 mg kg^−1 i.p.) or vehicle, ii) repeated ebselen (10 mg kg^−1 i.p., twice daily for 7 days; last injection morning of the 8th day) or vehicle, and iii) repeated lithium (7 days; 10 mmol kg^−1 i.p. on day 1, 3 mmol kg^−1 i.p. twice daily on days 2-7) or vehicle.
Tissue sections (12 μm) were cryostat-cut at the level of the frontal cortex and stored in −80° C. On the day of the experiment, sections were incubated (at room temperature) in Tris-HCl buffer (0.17 M, pH 7.7) for 20 min, and then for 2 h with either 2 nM [^3H]-ketanserin (PerkinElmer) to determine total binding, or 2 nM [^3H]-ketanserin plus 10 μM methysergide to determine non-specific binding. Sections were then washed twice for 10 min with ice-cold 4° C. Tris-HCl buffer (0.17 M, pH 7.7), followed by double deionised water. Finally, slides were air-dried overnight before being exposed to autoradiographic films (BioMax MR, Kodak) for 12 weeks.
Optical density measurements were obtained from the autoradiograms as described above. […] Specific binding was calculated by subtracting non-specific binding from total binding. […]

In another series the test system is 5-HT synthesis. The series is described as follows: 5-HT synthesis (5-HTP accumulation after NSD1015). The class given is in vivo, mouse. On the procedure: (§1) The level of 5-HT synthesis in frontal cortex and hippocampus was obtained by measuring the accumulation of 5-HTP following inhibition of aromatic amino acid decarboxylase. Mice (n=6 per group) were administered ebselen (0.5, 1 or 5 mg kg^−1 i.p.) or vehicle and 1 h later animals were injected with the aromatic amino acid decarboxylase inhibitor NSD1015 (100 mg kg^−1 i.p.). Mice were then culled by cervical dislocation 30 min following NSD1015 and brain tissue was removed and stored at −80° C. Separate experiments measured levels of 5-HT, 5-HIAA and tryptophan in cortex and hippocampus. Mice (n=6 per group) were administered ebselen (0.5, 1 or 5 mg kg^−1 i.p.) or vehicle and then culled by cervical dislocation 1 h post-drug. Brain tissue was dissected out and stored at −80° C. prior to neurochemical analysis.
(§2) On the day of neurochemical analysis, tissue pieces (˜20 mg) of frozen frontal cortex and hippocampus were placed in Eppendorf tubes containing 500 μl perchloric acid (0.09 M) and homogenised using a polytron kinetic homogeniser (15000 rpm for 10 sec). Tissue homogenates were then centrifuged (1000 rpm for 10 min) and the supernatant was transferred in a new Eppendorf tube, protected from light, and kept on ice before analysis using HPLC with electrochemical detection (see below).
(§3) Both mcrodialysates (20 μl) and brain tissue supernatants (50 μl) were analysed by an HPLC system, comprising a silica-based, reversed phase column (3.0 μm ODS2, 4.6 mm×100 mm, Waters Ltd) coupled to an electrochemical detector (glass carbon working electrode versus Ag/AgCl reference; LC-4C, Bioanalytical systems). For microdialysates, analytes were separated at room temperature by an isocratic mobile phase comprising 12.5% (v/v) methanol, 0.13 M NaHPO4.H2O, 0.025 mM octane sulphonic acid, 0.85 mM EDTA and 2 mM NaCl at pH 3.5, and with the working electrode set at +0.7 V.
(§4) For measurement of 5-HT, 5-HIAA and tryptophan in brain tissue supernatants, analytes were separated at room temperature by an isocratic mobile phase comprising an isocratic mix of 15% (v/v) methanol, 2 mM 1-octanesulphonic acid, 0.12 M NaHPO4.H2O, 2 mM NaCl, and 0.1 mM EDTA at pH 3.7 with the working electrode set at +0.85V. For measurement of 5-HTP the mobile phase was adjusted to pH 3.4.

For series [5] the following is noted: clinical trials for ischemic stroke (Yamaguchi et al 1998); cited from earlier work.
For series [6] the following is noted: reported in WO 2012/107735; cited from earlier work.
For series [7], the system named is 5-HT2A receptor. The series can be described thus: Psilocin-evoked head-twitch response (HTR). The class given is in vivo, mice. As to conditions: ebselen pretreatment; psilocin 2 mg kg^-1 i.p.
A further series has as its system brain extracellular 5-HT. The series is described as follows: Microdialysis, extracellular 5-HT in hippocampus. The class given is in vivo, mice. Here is the method:
The microdialysis probe was connected to a perfusion pump (CMA/100, CMA Microdialysis Ltd.) and perfused (2 μl min^−1) continuously with artificial CSF (140 mM NaCl, 3 mM KCl, 1.2 mM Na2HPO4, 0.27 mM NaH2PO4, 1 mM MgCl2, 2.4 mM CaCl2 and 7.2 mM glucose). After 2 h perfusate samples were collected every 20 min and analysed immediately by HPLC with electrochemical detection (see below).
Once 3 consecutive baseline samples were stable, mice received a single injection of ebselen (10 mg kg^−1 i.p.) or vehicle. Citalopram (5 mg kg^−1 i.p.) was administered 1 h later and dialysates were collected for a further 2 h. At the end of each experiment, brains were removed and probe placement was confirmed by histological examination.
as §3

Series [8] in a line: Tissue levels of 5-HT, 5-HIAA and tryptophan. The class given is in vivo, mouse. The conditions noted are these: 1 h post-drug. Here is the method: as §1, §2, §3, §4
Where [9] appears, read: AR-A014418 10 or 20 mg kg^-1 i.p. pretreatment.
The mark [10] stands for this setting: acute ebselen 1, 5 or 10 mg kg^-1 i.p., DOI 2 mg kg^-1 i.p.
Where [11] appears, read: repeated ebselen 10 mg kg^-1 i.p. for 7 days.
The mark [12] stands for this setting: L-690,330 150 or 240 mg kg^-1 i.p. pretreatment.

As to `COc1ccc(CNC(=O)Nc2ncc([N+](=O)[O-])s2)cc1` [AR-A014418, N-[(4-methoxyphenyl)methyl]-N′-(5-nitro-2-thiazolyl) urea, reference compound], in the series on 5-HT2A receptor [1] (setting [9]), the “DOI-induced ESR” value was “did not affect” and the “DOI-induced HTR” value is listed as “did not affect”.
For `COc1cc(CC(C)N)c(OC)cc1I` (stereo not shown) [DOI, 1-(2,5-dimethoxy-4-iodophenyl)-propan-2-amine, reference compound], the “Increase in IEG mRNA above vehicle-injected controls” value with 5-HT2A receptor [2] (DOI 2 mg kg^-1 i.p., selected brain regions) is recorded as 50-200%.
For the compound `O=c1c2ccccc2[se]n1-c1ccccc1` [Ebselen, 2-phenyl-1,2-benzisoselenazol-3(2H)-one], the LD50 entry in series [3] was “greater than 1000 mg/kg”. Further, the “[^3H]-Ketanserin binding sites” value in series [4] (acute ebselen 10 mg kg^-1 i.p. (2h), vehicle 4.33 ± 0.66) was 3.36 ± 0.38 nCi g^-1 of tissue. Moreover, in [4] (repeated ebselen 10 mg kg^-1 i.p. (7 days), vehicle 6.60 ± 0.27), the “[^3H]-Ketanserin binding sites” value is 6.12 ± 0.63 nCi g^-1 of tissue. Besides, in the series on 5-HT synthesis (ebselen 0.5 mg kg^-1 i.p.), the “5-HTP Cortex” value is recorded as 109.7 ± 10.6 % of vehicle and the “5-HTP Hippocampus” value is listed as 87.9 ± 14.6 % of vehicle. Moreover, in the series with 5-HT synthesis (ebselen 1 mg kg^-1 i.p.), the “5-HTP Cortex” value is on record as 100.4 ± 3.7 % of vehicle and the “5-HTP Hippocampus” value is recorded as 95.6 ± 6.5 % of vehicle. For the same compound, in the series with 5-HT synthesis (ebselen 5 mg kg^-1 i.p.), the “5-HTP Cortex” value is reported as 202.5 ± 15.0 % of vehicle and the “5-HTP Hippocampus” value is listed as 152.6 ± 9.0 % of vehicle. Besides, the “Toxicity in humans at pharmaceutically effective dosages” value in series [5] is given as “sufficiently non-toxic”. Also, the “Transfer across the blood/brain barrier” value in [6] is listed as “capable of transferring across the blood/brain barrier”. Also, the “IEG responses to DOI (Arc, c-fos, egr-2 mRNA)” value with 5-HT2A receptor [2] (ebselen 10 mg kg^-1 i.p., cingulate and somatosensory cortex (Arc, c-fos), caudate nucleus and endopiriform cortex (egr-2)) is reported as “attenuated”. Also, in the series with 5-HT2A receptor [7], the “Psilocin-induced HTR” value is given as “decreased”. In the series with brain extracellular 5-HT (ebselen 10 mg kg^-1 i.p. 1 h before citalopram 5 mg kg^-1 i.p., greatest effect 20-40 min post citalopram), the “Effect of citalopram on extracellular 5-HT after ebselen pretreatment” value is reported as “enhanced”. The “Extracellular 5-HT, ebselen alone” value in the series on brain extracellular 5-HT (ebselen 10 mg kg^-1 i.p., vs vehicle-injected controls) was “no effect”. For the same compound, in series [8] (ebselen 0.5 mg kg^-1 i.p.), the “5-HIAA Cortex” value is reported as 83.3 ± 14.4 % of vehicle, the “5-HIAA Hippocampus” value was 129.8 ± 12.9 % of vehicle, the “5-HT Cortex” value was 158.1 ± 14.7 % of vehicle and the “5-HT Hippocampus” value is given as 234.4 ± 23.9 % of vehicle. For the same compound, in series [8] (ebselen 0.5 mg kg^-1 i.p.), the “Tryptophan Cortex” value is recorded as 105.0 ± 10.3 % of vehicle and the “Tryptophan Hippocampus” value is 210.2 ± 35.1 % of vehicle. Further, in [8] (ebselen 1 mg kg^-1 i.p.), the “5-HIAA Cortex” value is 75.9 ± 6.3 % of vehicle, the “5-HIAA Hippocampus” value is 141.0 ± 9.5 % of vehicle, the “5-HT Cortex” value is 148.6 ± 11.2 % of vehicle and the “5-HT Hippocampus” value is given as 225.9 ± 14.3 % of vehicle. In series [8] (ebselen 1 mg kg^-1 i.p.), the “Tryptophan Cortex” value is 122.7 ± 20.6 % of vehicle and the “Tryptophan Hippocampus” value is 128.5 ± 13.6 % of vehicle. Moreover, in series [8] (ebselen 5 mg kg^-1 i.p.), the “5-HIAA Cortex” value is on record as 88.7 ± 3.8 % of vehicle, the “5-HIAA Hippocampus” value is recorded as 139.2 ± 17.0 % of vehicle, the “5-HT Cortex” value was 130.9 ± 4.8 % of vehicle and the “5-HT Hippocampus” value is 189.4 ± 21.4 % of vehicle. Also, in series [8] (ebselen 5 mg kg^-1 i.p.), the “Tryptophan Cortex” value was 131.9 ± 14.5 % of vehicle and the “Tryptophan Hippocampus” value is recorded as 135.4 ± 17.2 % of vehicle. Further, in the series with 5-HT2A receptor [1] (setting [10]), the “DOI-evoked ESR” value is given as “dose-related decrease” and the “DOI-evoked HTR” value was “dose-related decrease”. In the series with 5-HT2A receptor [1] (setting [11]), the “Inhibitory effect on DOI-evoked ESR” value is given as “persisted” and the “Inhibitory effect on DOI-evoked HTR” value is “persisted”.
For the compound `CC(Oc1ccc(O)cc1)(P(=O)(O)O)P(=O)(O)O` [L-690,330, [1-(4-hydroxyphenoxy)ethylidene]bisphosphonic acid, reference compound], in the series with 5-HT2A receptor [1] (setting [12]), the “DOI-evoked ESR” value is “decreased” and the “DOI-evoked HTR” value is given as “decreased”.
Take `CN(C)CCCC1(c2ccc(F)cc2)OCc2cc(C#N)ccc21` (stereo not shown) [citalopram, reference compound]: the “Peak increase of 5-HT in hippocampal microdialysates above pre-drug values” with brain extracellular 5-HT (citalopram 5 mg kg^-1 i.p., 60 min post injection, awake mice) is given as “approximately 450%”.
